The test system of one experiment is SA ribosomes. The experiment is described as follows: S. aureus cell free in vitro transcription-translation assay (luciferase reporter). The experiment is classed as biochemical, Staphylococcus aureus. The conditions noted are these: for IC50, inhibition of protein synthesis: luciferase luminescence, S. aureus system. The method, then:
The SA ribosomes activity was tested and its level was determined in a bacterial coupled transcription/translation assay system which measures the expression of the luciferase gene, according to Murray, R. W. et al. [Antimicrobial agents and chemotherapy, 2001, 45(6), p. 1900-1904]. Briefly, the luciferase gene was inserted into plasmid with T7 RNA polymerase promoter. The 30 μl reaction's volume contained 160 mM Hepes-KOH buffer (pH 7.5), 6.5% PEG 8K, 0.074 mg/ml tyrosine, 1.3 mM ATP, 0.86 mM CTP, GTP and UTP, 208 mM potassium glutamate, 83 mM creatine phosphate, 28 mM NH4OAc, 0.663 mM cAMP, 1.8 mM DTT, 0.036 mg/ml folinic acid, 0.174 mg/ml E. coli tRNA mix, 1 mM amino acid, 0.25 mg/ml creatine kinase, 0.027 mg/ml T7 RNA polymerase, ribosome free E. coli cell free extract, 300 nM of SA ribosomes and 0.003 μg/μl luciferase plasmid.
The reaction mixture was incubated at 37° C. for 1 hour, and erythromycin was added at a final concentration of 8 μM in order to terminate the reaction. 50 μl of Luciferin Assay Reagent (LAR, Promega) was added to the mixture and luminescence was measured in order to quantify the reaction's products.
FIGS. 20A-B present the results of in vitro transcription-translation cell-free inhibition assays of bacterial protein synthesis, wherein the inhibitory effect on protein expression in S. aureus system of BC-3205 is presented in FIG. 20A and of lefamulin is presented in FIG. 20B. The activity of the reporter protein (luciferase) in the presence of various concentrations of BC-3205 and lefamulin is shown as arbitrary unit of luminescence [a.u.].

For another experiment, the system named is Staphylococcus aureus. To be noted: cited from earlier work.

In brackets after ≈: the same amount, converted by molar mass.

As for `C=C[C@]1(C)C[C@@H](OC(=O)CS[C@@H]2CC[C@@H](N)C[C@H]2O)[C@]2(C)[C@H](C)CC[C@]3(CCC(=O)[C@H]32)[C@@H](C)[C@@H]1O` [lefamulin], the “IC50, inhibition of protein synthesis” value in the experiment with SA ribosomes was 0.09 µg/mL.
Turning to `CCC[C@@H]1C[C@@H](C(=O)N[C@@H]([C@H]2O[C@H](SC)[C@H](O)[C@@H](O)[C@H]2O)[C@@H](C)O)N(C)C1` [lincomycin], the “IC50 against S. aureus ribosome compared to E. coli ones” value in the experiment on SA ribosomes (in words only, data not shown) is “super low IC50”.
`C=C[C@]1(C)C[C@@H](OC(=O)CS[C@H]2CCCN(C(=O)[C@H](N)C(C)C)C2)[C@]2(C)[C@H](C)CC[C@]3(CCC(=O)[C@H]32)[C@@H](C)[C@@H]1O` [BC-3205]: in the experiment on SA ribosomes, the “IC50, inhibition of protein synthesis” value is 0.42 µg/mL. The “MIC against SA” value in the experiment with Staphylococcus aureus is 0.06 µg/mL (≈ 0.104 µM). In addition, in the experiment on Staphylococcus aureus (more potent than linezolid), the “potency against SA relative to linezolid” value is on record as 16-32 fold.

(Values after patent publication US10723770B2, “Crystal structure of the large ribosomal subunit from S. aureus” (Yeda Research and Development Co. Ltd., priority 2015, dated 2020).)
